This passage reports EC50 and solubility results from patent publication US20250382344A1, “Soluble GLP1/GIP/NPY2 Receptor Triple Agonists” (Boehringer Ingelheim International GmH, priority 2024, published 2025).

Data set [1] addresses T1, hGLP1R (Homo sapiens, UniProt P43220).
T1 construct: expressed in transfected cells; host or cells: HEK-293 CRE-luciferase reporter cells
The experiment in a line: hGLP1R CreLuc assay in 0.5% and 100% plasma (HEK-293 CRE-luciferase reporter cells). The note with it: HEK-293 reporter cells. The class given is cell-based. On the technique in general: A reporter such as luciferase makes a cellular process visible.

Data set [2] concerns the target T2, hGIPR (Homo sapiens, UniProt P48546).
T2 construct: expressed in transfected cells; host or cells: CHO CRE-luciferase reporter cells
T2 sequence (P48546 22-466): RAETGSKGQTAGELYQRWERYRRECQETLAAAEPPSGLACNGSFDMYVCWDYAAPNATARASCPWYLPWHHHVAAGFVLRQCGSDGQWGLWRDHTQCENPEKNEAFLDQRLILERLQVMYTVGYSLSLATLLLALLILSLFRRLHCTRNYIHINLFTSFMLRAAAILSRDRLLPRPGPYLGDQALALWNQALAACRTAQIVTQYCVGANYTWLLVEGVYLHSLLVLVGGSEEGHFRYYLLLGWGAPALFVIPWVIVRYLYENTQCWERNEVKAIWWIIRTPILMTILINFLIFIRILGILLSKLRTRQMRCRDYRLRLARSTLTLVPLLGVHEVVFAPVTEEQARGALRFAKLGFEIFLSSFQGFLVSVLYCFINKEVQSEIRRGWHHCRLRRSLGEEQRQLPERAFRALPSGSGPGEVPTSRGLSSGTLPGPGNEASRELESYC
The experiment in a line: hGIPR CreLuc assay in 0.5% and 100% plasma (CHO CRE-luciferase reporter cells). The class given is cell-based.

In data set [3] the target is T3, hNPY2R (Homo sapiens, UniProt P49146).
T3 construct: expressed in transfected cells; host or cells: HEK-293 CRE-luciferase reporter cells
T3 sequence (P49146 1-381): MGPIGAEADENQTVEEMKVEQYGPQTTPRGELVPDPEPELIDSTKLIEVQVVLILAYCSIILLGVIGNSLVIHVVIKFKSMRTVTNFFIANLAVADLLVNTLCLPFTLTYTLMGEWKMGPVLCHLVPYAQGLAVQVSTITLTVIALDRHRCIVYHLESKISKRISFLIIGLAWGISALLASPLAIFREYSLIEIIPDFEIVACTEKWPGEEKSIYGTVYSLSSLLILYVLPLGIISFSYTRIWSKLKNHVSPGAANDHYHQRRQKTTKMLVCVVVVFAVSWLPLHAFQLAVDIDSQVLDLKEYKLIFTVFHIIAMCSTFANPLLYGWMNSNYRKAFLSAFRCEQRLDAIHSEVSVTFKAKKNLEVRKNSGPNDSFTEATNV
The experiment in a line: hNPY2R CreLuc assay in 0.5% and 100% plasma (HEK-293 CRE-luciferase reporter cells). The class given is cell-based. The note with it: HEK-293 reporter cells.

Data set [4] in a line: Solubility in 0.1 M phosphate buffer at pH 7. The class given is physicochemical. The note with it: 0.1 M phosphate buffer at pH 7, 10 mg/mL final peptide concentration, shaking 2 hours at room temperature, peptides as TFA-salts; measured sample pH 6.5-7.0.
Setting [5] is: 0.5% human plasma, read-out: hGLP1R 0.5% hP.
The mark [6] stands for this setting: 0.5% human plasma, read-out: hGIPR 0.5% hP.
Where [7] appears, read: 0.5% human plasma, read-out: hNPY2R 0.5% hP.
Setting [8] is: 100% human plasma, read-out: hNPY2R 100% hP.

Like-named read-outs stand apart in the source and are kept apart here.

T1 sequence (P43220 24-463): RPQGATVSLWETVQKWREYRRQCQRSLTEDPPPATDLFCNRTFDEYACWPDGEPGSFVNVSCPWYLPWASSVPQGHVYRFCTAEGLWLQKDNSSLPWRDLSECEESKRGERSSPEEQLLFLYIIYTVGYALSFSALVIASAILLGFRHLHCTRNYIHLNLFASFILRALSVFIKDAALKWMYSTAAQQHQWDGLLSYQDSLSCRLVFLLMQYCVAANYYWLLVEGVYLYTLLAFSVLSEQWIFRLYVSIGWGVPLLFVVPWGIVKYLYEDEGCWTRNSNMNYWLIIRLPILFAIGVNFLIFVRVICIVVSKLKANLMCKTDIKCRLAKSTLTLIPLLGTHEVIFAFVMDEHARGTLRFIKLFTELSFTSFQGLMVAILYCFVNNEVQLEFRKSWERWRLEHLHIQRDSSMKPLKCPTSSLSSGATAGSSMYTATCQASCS

For the molecule `CC[C@H](C)[C@H](NC(=O)[C@H](CC(C)C)NC(=O)[C@H](Cc1c[nH]cn1)NC(=O)[C@H](CCCNC(=N)N)NC(=O)[C@@H](NC(=O)[C@H](Cc1ccccc1)NC(=O)[C@H](CCC(=O)O)NC(=O)C(C)(C)NC(=O)[C@H](CCC(N)=O)NC(=O)[C@H](C)NC(=O)[C@H](CCC(N)=O)NC(=O)[C@H](CCCCN)NC(=O)[C@H](CCC(=O)O)NC(=O)[C@H](CC(C)C)NC(=O)C(C)(C)NC(=O)[C@@H](NC(=O)[C@H](CO)NC(=O)[C@H](Cc1ccc(O)cc1)NC(=O)[C@H](CC(=O)O)NC(=O)[C@H](CO)NC(=O)[C@@H](NC(=O)[C@H](Cc1ccccc1)NC(=O)[C@@H](NC(=O)CNC(=O)[C@H](CCC(=O)O)NC(=O)C(C)(C)NC(=O)[C@@H](N)Cc1ccc(O)cc1)[C@@H](C)O)[C@@H](C)O)[C@@H](C)CC)C(C)C)C(=O)N[C@@H](CC(N)=O)C(=O)N[C@@H](CCCCNC(=O)CCCCCNC(=O)CC[C@H](NC(=O)CC[C@H](NC(=O)CC[C@H](NC(=O)CC[C@H](NC(=O)CC[C@H](NC(=O)CCCCCCCCCCCCCCCCC(=O)O)C(=O)O)C(=O)O)C(=O)O)C(=O)O)C(=O)O)C(=O)NC(C)(C)C(=O)N[C@H](C(=O)N[C@@H](CCCNC(=N)N)C(=O)N[C@@H](CCC(N)=O)C(=O)N[C@@H](CCCNC(=N)N)C(=O)N[C@@H](Cc1ccc(O)cc1)C(N)=O)[C@@H](C)O` [Compound 14, Y-Aib-E-G-T-F-T-S-D-Y-S-I-Aib-L-E-K-Q-A-Q-Aib-E-F-V-R-H-L-I-N-K(1,3)-Aib-T-R-Q-R-Y-NH2.C18DA-gGlu-gGlu-gGlu-gGlu-gGlu-AHX(1,2)], the EC50 in data set [1] (setting [5]) came out at 300 pM; in data set [1] (100% human plasma, read-out: hGLP1R 100% hP), 900 pM; in data set [2] (setting [6]), 100 pM; in data set [2] (100% human plasma, read-out: hGIPR 100% hP), 6200 pM; in data set [3] (setting [7]), 16800 pM; in data set [3] (setting [8]), 387000 pM. In addition, the solubility at 2 h in data set [4] is 4800 µg/mL.

In the case of `CC[C@H](C)[C@H](NC(=O)[C@H](CC(C)C)NC(=O)[C@H](Cc1c[nH]cn1)NC(=O)[C@H](CCCNC(=N)N)NC(=O)[C@@H](NC(=O)[C@H](Cc1ccccc1)NC(=O)[C@H](C)NC(=O)C(C)(C)NC(=O)[C@H](CCC(N)=O)NC(=O)[C@H](C)NC(=O)[C@H](CCC(N)=O)NC(=O)[C@H](CCCCN)NC(=O)[C@H](CCC(=O)O)NC(=O)[C@H](CC(C)C)NC(=O)C(C)(C)NC(=O)[C@@H](NC(=O)[C@H](CO)NC(=O)[C@H](Cc1ccc(O)cc1)NC(=O)[C@H](CC(=O)O)NC(=O)[C@H](CO)NC(=O)[C@@H](NC(=O)[C@H](Cc1ccccc1)NC(=O)[C@@H](NC(=O)CNC(=O)[C@H](CCC(=O)O)NC(=O)C(C)(C)NC(=O)[C@@H](N)Cc1ccc(O)cc1)[C@@H](C)O)[C@@H](C)O)[C@@H](C)CC)C(C)C)C(=O)N[C@@H](CC(N)=O)C(=O)N[C@@H](CCCCNC(=O)COCCOCCNC(=O)CC[C@H](NC(=O)CC[C@H](NC(=O)CC[C@H](NC(=O)CC[C@H](NC(=O)CC[C@H](NC(=O)CC[C@H](NC(=O)CCCCCCCCCCCCCCCCC(=O)O)C(=O)O)C(=O)O)C(=O)O)C(=O)O)C(=O)O)C(=O)O)C(=O)NC(C)(C)C(=O)N[C@H](C(=O)N[C@@H](CCCNC(=N)N)C(=O)N[C@@H](CCC(N)=O)C(=O)N[C@@H](CCCNC(=N)N)C(=O)N[C@@H](Cc1ccc(O)cc1)C(N)=O)[C@@H](C)O` [Compound 47, Y-Aib-E-G-T-F-T-S-D-Y-S-I-Aib-L-E-K-Q-A-Q-Aib-A-F-V-R-H-L-I-N-K(1,3)-Aib-T-R-Q-R-Y-NH2.C18DA-gGlu-gGlu-gGlu-gGlu-gGlu-gGlu-OEG(1,2)], the values for the EC50 in data set [1] (setting [5]), in data set [2] (setting [6]) and in data set [3] (setting [7]) were 800 pM, 300 pM and 19900 pM, respectively. Also, the solubility at 2 h in data set [4] turned out to be 10000 µg/mL.

Consider `CC[C@H](C)[C@H](NC(=O)[C@H](CC(C)C)NC(=O)[C@H](CCC(N)=O)NC(=O)[C@H](CCCNC(=N)N)NC(=O)[C@@H](NC(=O)[C@H](Cc1ccccc1)NC(=O)[C@H](C)NC(=O)C(C)(C)NC(=O)[C@H](CCC(N)=O)NC(=O)[C@H](C)NC(=O)[C@H](CCC(N)=O)NC(=O)[C@H](CCCCN)NC(=O)[C@H](CCC(=O)O)NC(=O)[C@H](CC(C)C)NC(=O)C(C)(C)NC(=O)[C@@H](NC(=O)[C@H](CO)NC(=O)[C@H](Cc1ccc(O)cc1)NC(=O)[C@H](CC(=O)O)NC(=O)[C@H](CO)NC(=O)[C@@H](NC(=O)[C@H](Cc1ccccc1)NC(=O)[C@@H](NC(=O)CNC(=O)[C@H](CCC(=O)O)NC(=O)C(C)(C)NC(=O)[C@@H](N)Cc1ccc(O)cc1)[C@@H](C)O)[C@@H](C)O)[C@@H](C)CC)C(C)C)C(=O)N[C@@H](CC(N)=O)C(=O)N[C@@H](CCCCNC(=O)CC[C@H](NC(=O)CC[C@H](NC(=O)CC[C@H](NC(=O)CC[C@H](NC(=O)CC[C@H](NC(=O)CCCCCCCCCCCCCCCCC(=O)O)C(=O)O)C(=O)O)C(=O)O)C(=O)O)C(=O)O)C(=O)NC(C)(C)C(=O)N[C@H](C(=O)N[C@@H](CCCNC(=N)N)C(=O)N[C@@H](CCC(N)=O)C(=O)N[C@@H](CCCNC(=N)N)C(=O)N[C@@H](Cc1ccc(O)cc1)C(N)=O)[C@@H](C)O` [Compound 50, Y-Aib-E-G-T-F-T-S-D-Y-S-I-Aib-L-E-K-Q-A-Q-Aib-A-F-V-R-Q-L-I-N-K(1,3)-Aib-T-R-Q-R-Y-NH2.C18DA-gGlu-gGlu-gGlu-gGlu-gGlu(1,2)], for which the EC50 in data set [1] (setting [5]) was determined as 700 pM; in data set [2] (setting [6]) it was 700 pM; in data set [3] (setting [8]) it was 523000 pM. Also, the solubility at 2 h in data set [4] was found to be 4500 µg/mL.

Consider `CC[C@H](C)[C@H](NC(=O)[C@H](CC(C)C)NC(=O)[C@H](Cc1c[nH]cn1)NC(=O)[C@H](CCCNC(=N)N)NC(=O)[C@@H](NC(=O)[C@H](Cc1ccccc1)NC(=O)[C@H](CCC(=O)O)NC(=O)C(C)(C)NC(=O)[C@H](CCC(N)=O)NC(=O)[C@H](C)NC(=O)[C@H](CCC(=O)O)NC(=O)[C@H](CCC(=O)O)NC(=O)[C@H](CCC(=O)O)NC(=O)[C@H](CC(C)C)NC(=O)C(C)(C)NC(=O)[C@@H](NC(=O)[C@H](CO)NC(=O)[C@H](Cc1ccc(O)cc1)NC(=O)[C@H](CC(=O)O)NC(=O)[C@H](CO)NC(=O)[C@@H](NC(=O)[C@H](Cc1ccccc1)NC(=O)[C@@H](NC(=O)CNC(=O)[C@H](CCC(=O)O)NC(=O)C(C)(C)NC(=O)[C@@H](N)Cc1ccc(O)cc1)[C@@H](C)O)[C@@H](C)O)[C@@H](C)CC)C(C)C)C(=O)N[C@@H](CC(N)=O)C(=O)N[C@@H](CCCCNC(=O)CC[C@H](NC(=O)CC[C@H](NC(=O)CC[C@H](NC(=O)CC[C@H](NC(=O)CCCCCCCCCCCCCCCCC(=O)O)C(=O)O)C(=O)O)C(=O)O)C(=O)O)C(=O)NC(C)(C)C(=O)N[C@H](C(=O)N[C@@H](CCCNC(=N)N)C(=O)N[C@@H](CCC(N)=O)C(=O)N[C@@H](CCCNC(=N)N)C(=O)N[C@@H](Cc1ccc(O)cc1)C(N)=O)[C@@H](C)O` [Compound 64, Y-Aib-E-G-T-F-T-S-D-Y-S-I-Aib-L-E-E-E-A-Q-Aib-E-F-V-R-H-L-I-N-K(1,3)-Aib-T-R-Q-R-Y-NH2.C18DA-gGlu-gGlu-gGlu-gGlu(1,2)], for which the EC50 is 500 pM in data set [1] (setting [5]), 500 pM in data set [2] (setting [6]) and 162000 pM in data set [3] (setting [7]). Also, the solubility at 2 h in data set [4] is 4800 µg/mL.

For `CC[C@H](C)[C@H](NC(=O)[C@H](CC(C)C)NC(=O)[C@H](Cc1c[nH]cn1)NC(=O)[C@H](CCCNC(=N)N)NC(=O)[C@@H](NC(=O)[C@H](Cc1ccccc1)NC(=O)[C@H](C)NC(=O)C(C)(C)NC(=O)[C@H](CCC(N)=O)NC(=O)[C@H](C)NC(=O)[C@H](CCC(N)=O)NC(=O)[C@H](CCC(N)=O)NC(=O)[C@H](CC(=O)O)NC(=O)[C@H](CC(C)C)NC(=O)C(C)(C)NC(=O)[C@@H](NC(=O)[C@H](CO)NC(=O)[C@H](Cc1ccc(O)cc1)NC(=O)[C@H](CC(=O)O)NC(=O)[C@H](CO)NC(=O)[C@@H](NC(=O)[C@H](Cc1ccccc1)NC(=O)[C@@H](NC(=O)CNC(=O)[C@H](CCC(=O)O)NC(=O)C(C)(C)NC(=O)[C@@H](N)Cc1ccc(O)cc1)[C@@H](C)O)[C@@H](C)O)[C@@H](C)CC)C(C)C)C(=O)N[C@@H](CC(N)=O)C(=O)N[C@@H](CCCCNC(=O)[C@@H](N)CCCCNC(=O)CC[C@H](NC(=O)CC[C@H](NC(=O)CC[C@H](NC(=O)CC[C@H](NC(=O)CC[C@H](NC(=O)CCCCCCCCCCCCCCCCC(=O)O)C(=O)O)C(=O)O)C(=O)O)C(=O)O)C(=O)O)C(=O)NC(C)(C)C(=O)N[C@H](C(=O)N[C@@H](CCCNC(=N)N)C(=O)N[C@@H](CCC(N)=O)C(=O)N[C@@H](CCCNC(=N)N)C(=O)N[C@@H](Cc1ccc(O)cc1)C(N)=O)[C@@H](C)O` [Compound 70, Y-Aib-E-G-T-F-T-S-D-Y-S-I-Aib-L-D-Q-Q-A-Q-Aib-A-F-V-R-H-L-I-N-K(1,3)-Aib-T-R-Q-R-Y-NH2.C18DA-gGlu-gGlu-gGlu-gGlu-gGlu-eLys(1,2)], the EC50 was found to be 200 pM in data set [1] (setting [5]), 200 pM in data set [2] (setting [6]) and 119000 pM in data set [3] (setting [8]). In addition, in data set [4], the solubility at 2 h was found to be 9100 µg/mL.

What is called solubility is the dissolved amount per volume that the medium holds.
